From US20160151403A1, “SMALL MOLECULE MODULATORS OF P53 FAMILY SIGNALING” (The Trustees of the University of Pennsylvania, priority 2006, published 2016)
Entries after “also recorded” stand apart in the source; their conditions may differ.

Legend:
[1] = system: p53 protein expression in HCT116 cells; test: Western blot of p53 protein in parental HCT116 cells; assay type: cell-based, human; details: FIG. 2A
Protocol: (§1) Cells were collected and protein concentration was quantified by the Bio-Rad protein assay prior to SDS-PAGE. Proteins were transferred to a PVDF membrane (Immobilon-P, Millipore Corporation, Bedford, Mass.) by a semi-dry transfer apparatus (Bio-Rad Laboratories, Hercules, Calif.). The membranes with transferred proteins were blotted with 10% W/V non-fat dry milk and then incubated with the primary antibody and subsequently secondary antibodies, which were labelled by horseradish peroxidase, or infrared dyes (IR). Signals were visualized by either ECL (Amersham Pharmacia Biotech, England, UK) and exposed to an X-ray film, or scanned by the Odyssey Infared Imaging System (LI-COR Biosciences, Lincoln, Nebr.). Anti-p53, DO-1, was from Santa Cruz biotechnology, Inc. (Santa Cruz, Calif.), anti-p73 (AB-1) and anti-p21 (AB-1) were obtained from Calbiochem (San Diego, Calif.). Anti-ser20 of p53 Cell were obtained from Signaling Technology (Danvers, Mass.) and anti-DR5 antibody was obtained from Cayman Chemical (Ann Arbor, Mich.).
(§2) The chemical library screening was directed at restoring “p53 responses” in p53-deficient cells. The small molecules identified by the cell-based screening procedure appeared to be able to restore p53 responses in p53-deficient colon tumors and to eliminate viable cells. Their function was further tested on wild-type p53-expressing and p53-knockout HCT116 colon adenocarcinoma cell lines. A number of candidate modulators of signaling by the p53 family appeared to induce expression of p53 target genes such as p21 or DR5(13) either with or without stabilizing p53 protein in HCT116 cells (FIG. 2A).

[2] = system: DR5 and p21 in HCT116/p53(+/+) cells; test: Western blot of p53 target genes DR5 and p21 in HCT116/p53(+/+) cells; assay type: cell-based, human; details: for expression of p53 targets DR5 and p21 proteins: parental HCT116 (p53+/+) cells, FIG. 2A
Protocol: (§3) FIGS. 2A-2B show protein levels of p53 target genes p21 and DR5 were induced by selected compounds in HCT/p53(+/+) cells (A) or HCT/p53(−/−) cells (B). In A, doses of compounds (μM) are listed above each lane. Cells treated with compounds were harvested and lysed for SDS-PAGE and immunoblotted with p21 or DR5 antibodies. Ran was used as a protein loading control. Doses of compounds in B were as follows: 2 μM for #15, 12 μM for #1 and #23, 20 μM for #20 and #32, 100 μM for #33, 200 μM for #5, #8, #12, #16, #17, and #22, and 400 μM for #3. The dose for adriamycin was 0.2 μg/ml. Cells were incubated for 16 hours at 37° C. with the various drugs prior to cell harvest;
as §1, §2

[3] = system: p73 in HCT116/p53(−/−) cells; test: Western blot of p73 protein in HCT116/p53(-/-) cells; assay type: cell-based, human; details: FIG. 3F
Protocol: (§4) FIGS. 3A-3F show: Structures (A) of isolated compounds and summary of their effects on the p53 family and transcriptional targets (B). Cell cycle profiles of HCT/p53(+/+) and HCT/p53(−/−) in response to treatment by selected compounds (C-E). The dose of #17 was 200 μM and for #23 it was 10 μM. F, p73 protein levels were elevated in HCT116/p53(−/−) cells in response to treatment by selected compounds at various concentrations as indicated;
as §1
The questioned whether the p53 family member p73 is involved in the p53-responsive transcriptional activity induced by the compounds identified was then tested. p63, the other p53 family member, was not tested, because the TA form of p63 is rarely expressed in malignant and normal tissues except for germ cells of the ovary and testis.

[4] = system: DR5 and p21 in HCT116/p53(−/−) cells; test: Western blot of p53 target genes DR5 and p21 in HCT116/p53(-/-) cells; assay type: cell-based, human; details: for DR5 and p21 expression (p53 target genes): p53-null HCT116 cells, 16 hours, doses per compound in FIG. 2B
Protocol: as §3, §1
A number of selected compounds was further tested on HCT116/p53^−/− cells to verify the possibility of induction of p53 target gene expression in the absence of p53. […] The importance of this observation is in establishing that it is possible to identify small molecules with the potential to induce p53 target gene expression in p53-deficient cells.

HCT116/p53^−/− cells = test: Flow cytometry cell cycle profile, HCT116/p53(-/-); assay type: cell-based, human
Protocol: as §4
(§5) Adherent cells in a 6-well plate were trypsinized and collected in 15 ml centrifuge tubes to which were added the originally floating cells. The collected cells were ethanol-fixed and stained with propidium iodide (Sigma, St. Louis, Mo.). The DNA content of the stained cells was then measured using an Epics Elite flow cytometer (Beckman-Coulter, Fullerton, Calif.).
(§6) The ability of selected compounds from the chemical library screen to induce apoptosis of human colon tumor cells and the dependence of their effects on endogenous p53 status was further evaluated.

[5] = Toxicity in xenograft-bearing mice; assay type: in vivo; details: at higher doses (above MTD)
Protocol: (§7) Compounds #1, #14, #17, and #23 were tested in colon-tumor xenograft-bearing mice in order to evaluate their toxicities and potential anti-tumor effects (FIG. 4). […] The initial doses were chosen below maximal tolerated doses based on the NCI DTP toxicology databases for chemical compound testing in vivo so that mice would survive drug administration and allow subsequent evaluation of anti-tumor effects. p53-null HCT116 xenografts were first tested to document anti-tumor effects in p53-deficient tumors and an experiment to simulate therapy of established tumors was designed. A total of 2×10^6 p53-null HCT116 cells were implanted on opposite flanks subcutaneously in each of 6 nude mice in each group. When tumor masses grew to about 3-5 mm in diameter, drugs were administered intra-peritoneally (#1: 100 mg/kg; #14: 50 mg/kg; #23: 10 mg/kg), and on the next day additional groups received intravenous TRAIL (15) (100 μg/mice via the tail vein). Tumor weights were determined at 7 days later. […] Nonetheless in the future it may be possible to modify the structure of #17 or identify doses where synergistic interactions with TRAIL may be observed.

HCT116/p53^+/+ cells = test: Flow cytometry cell cycle profile, HCT116/p53(+/+); assay type: cell-based, human; details: #17 200 μM, #23 10 μM
Protocol: as §4, §5, §6

[6] = system: HCT116/p53(+/+)/PG-13 cells; test: p53 transcriptional activity, PG13 reporter, HCT116/p53(+/+)/PG-13 cells; assay type: cell-based, human; details: 16 h, bioluminescence
Protocol: (§8) Cells were treated by the indicated compounds at progressive 1:2 serial dilutions for 16 h, and the luciferase activities were detected by bioluminescence imaging. Fold induction was calculated by comparing to the nontreated cells;

[7] = system: HCT116/p53(−/−) xenografts; test: In vivo anti-tumor assay, HCT116/p53(-/-) xenografts in Balb/c nude mice; details: doses just below the MTD
Protocol: Balb/c nude mice were inoculated subcutaneously with 2 million HCT116/p53(−/−) cells in Matrigel on each flank. 6 mice were used in each group, in each of the two experiments. When the tumor mass reached about 3-5 mm, mice were treated with the compounds alone or following a single dose of TRAIL at 100 μg/mouse in experiment 1. At 7 days after treatment, mice were sacrificed and the tumor masses were weighted. The doses used were 100 mg/kg for #1, 50 mg/kg for #14, and 10 mg/kg for #23;
Balb/c nude mice (Charles River Laboratories, Wilmington, Mass.) were inoculated subcutaneously with 2 million HCT116/p53(−/−) cells in an equal volume of Matrigel. When tumor masses reached about 3-5 mm in diameter, mice were treated with the compounds alone by intraperitoneal injection or following a single intravenous dose of TRAIL at 100 μg/mouse. At 7 days after treatment, mice were sacrificed and the tumor masses were weighed. DLD1/PG13 cells were inoculated subcutaneously with 5 million cells. At 24 hours later mice were treated with selected compounds, and subsequently bioluminescence imaging was carried out after 16 hours as previously described [Wang, W. & El-Deiry, W. S. (2003) Cancer Biol Ther 2, 196-202].
as §7

[8] = system: HCT116/p53(−/−)/PG13 cells; test: p53 transcriptional activity, PG13 reporter, HCT116/p53(-/-)/PG13 cells; assay type: cell-based, human; details: p53-null HCT116, 16 h, bioluminescence
Protocol: as §8

γH2AX = γH2AX test (DNA damage signaling); assay type: cell-based; details: after treatment

Cc1ccc(CCCC(=O)O)cc1C [#3]
p53 protein expression [1]: slight or no significant effect
expression of p53 targets DR5 and p21 proteins [2]: increase p53 target gene expression

O=C(O)/C=C\C(=O)Nc1ccc2c(c1)-c1ccccc1C2 [#5]
p53 protein expression [1]: slight or no significant effect
expression of p53 targets DR5 and p21 proteins [2]: increase p53 target gene expression

O=C(O)CCC(=O)c1ccc2sc3ccccc3c2c1 [#8]
p73 protein expression [3]: induce p73 protein expression
DR5 and p21 expression (p53 target genes) [4]: increase DR5 and p21 expression

COC1=C(C)C(=O)c2c(c(COC(N)=O)c3n2CC2C3N2C)C1=O (stereo not shown) [#11]
p53 protein expression [1]: increased p53 expression
expression of p53 targets DR5 and p21 proteins [2]: more modest

O=C(O)c1ccccc1-c1ccccc1C(=O)Nc1ccc2c(c1)[nH]c(=O)c1ccccc12 [#12]
p53 protein expression [1]: slight or no significant effect
p73 protein expression [3]: induce p73 protein expression
expression of p53 targets DR5 and p21 proteins [2]: increase p53 target gene expression

Cc1c2ccccc2c(CSC(=N)N)c2ccccc12.Cl [#15]
p53 protein expression [1]: increased p53 expression; also recorded: significantly increased p53 protein levels
expression of p53 targets DR5 and p21 proteins [2]: more modest

CC(C)=CCNc1ncnc2c1c(C#N)cn2C1OC(CO)C(O)C1O (stereo not shown) [#16]
p53 protein expression [1]: slight or no significant effect
p73 protein expression [3]: induce p73 protein expression
expression of p53 targets DR5 and p21 proteins [2]: increase p53 target gene expression

CN(C)CCCn1c2ccccc2c2cnccc21 [#17]
sub-G1 peak (apoptosis) (HCT116/p53^−/− cells; HCT116/p53^−/−, #17 200 μM, #23 10 μM): induced a sub-G1 peak characteristic of apoptosis
S-phase population on apoptosis induction (HCT116/p53^−/− cells; p53-null HCT116 cells, compared with wild-type p53-expressing HCT116): without suppressing the S-phase population
toxicity to mice [5]: toxic to mice
p53 protein expression [1]: slight or no significant effect; also recorded: modestly induced p53 levels
sub-G1 peak (apoptosis) (HCT116/p53^+/+ cells): induced a sub-G1 peak characteristic of apoptosis
p53 transcriptional activity [6]: highest
p73 protein expression [3]: did not increase p73 expression
DR5 expression ([4]; HCT116/p53^−/− cells): highest
DR5 and p21 expression (p53 target genes) [4]: increasing expression of the p53 target genes DR5 and p21; also recorded: strongly induce p53 target gene expression
anti-tumor effect on established xenograft [7]: no apparent in vivo anti-tumor effect
DR5 levels ([2]; HCT116/p53^+/+ cells): highest
expression of p53 targets DR5 and p21 proteins [2]: increase p53 target gene expression
p53 transcriptional activity (reporter assay response) [8]: highest; also recorded: stronger responses in the reporter assays
γH2AX (γH2AX): not

O=c1[nH]c(SCc2ccccc2[N+](=O)[O-])nc2nc[nH]c12 [#22]
DR5 and p21 expression (p53 target genes) [4]: increase DR5 and p21 expression

C[C@]12CC[C@H](O)C[C@H]1CC[C@@H]1[C@@H]2CC[C@]2(C)[C@@H](C3=CC(=O)OC3)[C@@H](O)C[C@]12O [#32]
DR5 and p21 expression (p53 target genes) [4]: increase DR5 and p21 expression

CC[C@@]1(O)C(=O)OCc2c1cc1n(c2=O)Cc2cc3c(NC(=O)CN)cccc3nc2-1.Cl [#33]
p53 protein expression [1]: increase p53 expression; also recorded: significantly increased p53 protein levels
expression of p53 targets DR5 and p21 proteins [2]: increased expression of DR5 and p21 proteins

COc1cccc2c1C(=O)c1c(O)c3c(c(O)c1C2=O)C[C@@](O)(C(=O)CO)C[C@@H]3O[C@H]1C[C@H](N)[C@H](O)[C@H](C)O1 [adriamycin, doxorubicin, reference compound]
p73 protein expression [3]: only increased p73 slightly
DR5 expression ([4]; HCT116/p53^−/− cells): no obvious effect
p21 expression ([4]; HCT116/p53^−/− cells): little effect
